Test results as given in patent US9695155B2, “Herbicidal substituted pyrimidinyloxy benzene compounds” (E. I. DU PONT DE NEMOURS AND COMPANY, priority 2013, dated 2017).

Columns and labels:
sedge, umbrella = assay: Test B flooded paddy test; format: in vivo, Cyperus difformis; conditions: Flood, 250 g ai/ha; 0 to 100 scale where 0 is no effect and 100 is complete control
Outline: (§1)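 Plants at 2-leaf stage; pots flooded to 3 cm above soil and compound applied directly into paddy water, depth held throughout. After 13 to 15 days in greenhouse, visual rating versus controls on 0 (no effect) to 100 (complete control) scale.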

morningglory [1] = assay: Test A postemergence; format: in vivo, Ipomoea spp.
Outline: (§2)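 Visual 0–100 rating (100 = complete control) taken about 10 d post-treatment relative to untreated checks. Preemergence: directed soil spray on sown loam/sand pots. Postemergence: seedlings 2–10 cm, 1–2 leaf. Non-phytotoxic solvent formulation with surfactant.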

wheat [2] = assay: Test A postemergence; format: in vivo, Triticum aestivum
Outline: as §2

barnyardgrass [3] = assay: Test A postemergence; format: in vivo, Echinochloa crus-galli
Outline: as §2

barnyardgrass [4] = assay: Test B flooded paddy test; format: in vivo, Echinochloa crus-galli; conditions: Flood, 250 g ai/ha; 0 to 100 scale where 0 is no effect and 100 is complete control
Outline: as §1

morningglory [5] = assay: Test A preemergence; format: in vivo, Ipomoea spp.
Outline: as §2

giant foxtail [6] = assay: Test A postemergence; format: in vivo, Setaria faberii
Outline: as §2

wheat [7] = assay: Test A preemergence; format: in vivo, Triticum aestivum
Outline: as §2

Heteranthera limosa = assay: Test B flooded paddy test; format: in vivo; conditions: Flood, 250 g ai/ha; 0 to 100 scale where 0 is no effect and 100 is complete control
Outline: as §1

corn [8] = assay: Test A postemergence; format: in vivo, Zea mays
Outline: as §2

giant foxtail [9] = assay: Test A preemergence; format: in vivo, Setaria faberii
Outline: as §2

large (Lg) crabgrass [10] = assay: Test A postemergence; format: in vivo, Digitaria sanguinalis
Outline: as §2

velvetleaf [11] = assay: Test A preemergence; format: in vivo, Abutilon theophrasti
Outline: as §2

velvetleaf [12] = assay: Test A postemergence; format: in vivo, Abutilon theophrasti
Outline: as §2

barnyardgrass [13] = assay: Test A preemergence; format: in vivo, Echinochloa crus-galli
Outline: as §2

corn [14] = assay: Test A preemergence; format: in vivo, Zea mays
Outline: as §2

rice = assay: Test B flooded paddy test; format: in vivo, Oryza sativa; conditions: Flood, 250 g ai/ha; 0 to 100 scale where 0 is no effect and 100 is complete control
Outline: as §1

large (Lg) crabgrass [15] = assay: Test A preemergence; format: in vivo, Digitaria sanguinalis
Outline: as §2

pigweed [16] = assay: Test A preemergence; format: in vivo, Amaranthus retroflexus
Outline: as §2

pigweed [17] = assay: Test A postemergence; format: in vivo, Amaranthus retroflexus
Outline: as §2

[18] = 125 g ai/ha, 0 to 100 scale where 0 is no effect and 100 is complete control
[19] = 500 g ai/ha, 0 to 100 scale where 0 is no effect and 100 is complete control
[20] = 1000 g ai/ha, 0 to 100 scale, 0 no effect, 100 complete control
[21] = 1000 g ai/ha, 0 to 100 scale, 0 no effect, 100 complete control, approx. 10 days

COc1cnc(Oc2ccccc2-n2cccn2)nc1 [Compound 227]
50: Velvetleaf plant response rating (velvetleaf [12]; [18])
60: Pigweed plant response rating (pigweed [16]; [19]) | Plant response rating, Pigweed (pigweed [17]; [19])
90: Plant response rating, Velvetleaf (velvetleaf [12]; [19])
0: Plant response rating, Sedge, Umbrella (sedge, umbrella) | Morningglory plant response rating (morningglory [1]; [18]) | Wheat plant response rating (wheat [2]; [18]) | Plant response rating, Wheat (wheat [2]; [19]) | Barnyardgrass plant response rating (barnyardgrass [3]; [18]) | Plant response rating, Barnyardgrass (barnyardgrass [3]; [19]) | Plant response rating, Barnyardgrass (barnyardgrass [4]) | Morningglory plant response rating (0 to 100 scale) (morningglory [5]; 125 g ai/ha) | Morningglory plant response rating (morningglory [5]; [19]) | Foxtail, Giant plant response rating (giant foxtail [6]; [18]) | Wheat plant response rating (0 to 100 scale) (wheat [7]; 125 g ai/ha) | Wheat plant response rating (wheat [7]; [19]) | Plant response rating, Ducksalad (Heteranthera limosa) | Corn plant response rating (corn [8]; [18]) | Plant response rating, Corn (corn [8]; [19]) | Foxtail, Giant plant response rating (0 to 100 scale) (giant foxtail [9]; 125 g ai/ha) | Crabgrass, Large plant response rating (large (Lg) crabgrass [10]; [18]) | Barnyardgrass plant response rating (0 to 100 scale, 0 is no effect, 100 is complete control) (barnyardgrass [13]; 125 g ai/ha) | Barnyardgrass plant response rating (barnyardgrass [13]; [19]) | Corn plant response rating (0 to 100 scale) (corn [14]; 125 g ai/ha) | Corn plant response rating (corn [14]; [19]) | Plant response rating, Rice (rice) | Crabgrass, Large plant response rating (0 to 100 scale) (large (Lg) crabgrass [15]; 125 g ai/ha)
20: Velvetleaf plant response rating (velvetleaf [11]; [19])
10: Plant response rating, Morningglory (morningglory [1]; [19]) | Plant response rating, Foxtail, Giant (giant foxtail [6]; [19]) | Foxtail, Giant plant response rating (giant foxtail [9]; [19]) | Plant response rating, Crabgrass, Large (large (Lg) crabgrass [10]; [19]) | Velvetleaf plant response rating (0 to 100 scale) (velvetleaf [11]; 125 g ai/ha) | Crabgrass, Large plant response rating (large (Lg) crabgrass [15]; [19]) | Pigweed plant response rating (0 to 100 scale) (pigweed [16]; 125 g ai/ha) | Pigweed plant response rating (pigweed [17]; [18])

CC(=O)Oc1cccc(Oc2ncc(Cl)cn2)c1-n1cc(Cl)cn1 [Compound 216]
30: Plant response rating, Foxtail, Giant (giant foxtail [6]; [20]) | Velvetleaf plant response rating (velvetleaf [11]; [21]) | Barnyardgrass plant response rating (barnyardgrass [13]; [21])
70: Crabgrass, Large plant response rating (large (Lg) crabgrass [15]; [21])
40: Plant response rating, Morningglory (morningglory [1]; [20]) | Foxtail, Giant plant response rating (giant foxtail [9]; [21]) | Plant response rating, Crabgrass, Large (large (Lg) crabgrass [10]; [20])
100: Plant response rating, Velvetleaf (velvetleaf [12]; [20]) | Pigweed plant response rating (pigweed [16]; [21]) | Plant response rating, Pigweed (pigweed [17]; [20])
0: Plant response rating, Sedge, Umbrella (sedge, umbrella) | Plant response rating, Wheat (wheat [2]; [20]) | Plant response rating, Barnyardgrass (barnyardgrass [3]; [20]) | Plant response rating, Barnyardgrass (barnyardgrass [4]) | Morningglory plant response rating (morningglory [5]; [21]) | Wheat plant response rating (wheat [7]; [21]) | Plant response rating, Ducksalad (Heteranthera limosa) | Plant response rating, Corn (corn [8]; [20]) | Corn plant response rating (corn [14]; [21]) | Plant response rating, Rice (rice)

Clc1cnc(Oc2cccc(I)c2-n2cc(Br)cn2)nc1 [Compound 66]
100: Plant response rating, Morningglory (morningglory [1]; [20]) | Plant response rating, Foxtail, Giant (giant foxtail [6]; [20]) | Foxtail, Giant plant response rating (giant foxtail [9]; [21]) | Plant response rating, Crabgrass, Large (large (Lg) crabgrass [10]; [20]) | Plant response rating, Velvetleaf (velvetleaf [12]; [20]) | Plant response rating, Crabgrass, Large (large (Lg) crabgrass [15]; [20]) | Pigweed plant response rating (pigweed [16]; [21]) | Plant response rating, Pigweed (pigweed [17]; [20])
20: Plant response rating, Wheat (wheat [2]; [20])
0: Plant response rating, Sedge, Umbrella (sedge, umbrella) | Plant response rating, Barnyardgrass (barnyardgrass [4]) | Plant response rating, Rice (rice)
90: Velvetleaf plant response rating (velvetleaf [11]; [21]) | Plant response rating, Barnyardgrass (barnyardgrass [13]; [20])
80: Plant response rating, Barnyardgrass (barnyardgrass [3]; [20])
10: Wheat plant response rating (wheat [7]; [21])
30: Plant response rating, Ducksalad (Heteranthera limosa) | Plant response rating, Corn (corn [14]; [20])
40: Morningglory plant response rating (morningglory [5]; [21]) | Plant response rating, Corn (corn [8]; [20])
